According to US7592308B2, “F3W variants of the lantibiotic mersacidin and its use” (priority 2004, dated 2009):
≈ marks a conversion by molar mass, not a printed value. Entries after “also recorded” stand apart in the source; their conditions may differ. Where two headings read alike, the source gives them in different places. Square brackets hold non-standard residues; d marks the D form. Ends that are not written are not given here. Dhb = C/C=C(\N)C(=O)O; Dha = C=C(N)C(=O)O

Key:
E. faecium 19579 = test: MIC, two-fold serial dilution in broth; assay type: cell-based, Enterococcus faecium; conditions: duplicate
Procedure: (§1) A selection of the variants produced in Example 1 above were tested further for activity against a range of bacteria. Minimum inhibitory concentrations (MICs) for all organisms with the exception of Streptococcus pneumoniae were determined by two-fold serial antibiotic dilutions in Mueller-Hinton broth (MHB) supplemented with 50 μg/ml calcium as calcium chloride dihydrate. Minimum inhibitory concentrations (MICs) for S. pneumoniae were determined by two-fold serial antibiotic dilutions in Brain Heart Infusion (BHI) broth supplemented with 50 μg/ml calcium as calcium chloride dihydrate. Antimicrobial agent stock solutions were prepared and stored according to NCCLS standard M7-A6.
(§2) Actively growing broth cultures were diluted to contain […] by adjusting to an absorbance of 0.2-0.3 at 600 nm, equivalent to the McFarland 0.5 standard. They were then diluted a further 1:100 in broth. The assays were performed in duplicate in sterile 96-well microtitre plates in a total volume of 200 μl (160 μl broth, 20 μl antibiotic, 20 μl inoculum) in a concentration range from 64 μg/ml to 0.06 μg/ml. The 12th well of the microtitre plate contained no antimicrobial agent. Vancomycin was used as a reference antibiotic for quality control. Plates were incubated aerobically, shaking, for 18-20 hours at 37° C. with the MIC defined as the lowest concentration of drug that produced no visible growth.

E. faecium 7131121 = test: MIC, two-fold serial dilution in broth; assay type: cell-based, Enterococcus faecium; conditions: duplicate
Procedure: as §1, §2

E. faecalis 29212 = test: MIC, two-fold serial dilution in broth; assay type: cell-based, Enterococcus faecalis; conditions: duplicate
Procedure: as §1, §2

S. aureus R33 = assay type: cell-based, Staphylococcus aureus; conditions: Table 8A; MHB + 50 μg/ml calcium; duplicate
Procedure: as §1, §2

S. aureus SH1000 = assay type: cell-based, Staphylococcus aureus
Procedure: as §1, §2

S. aureus COL = assay type: cell-based, Staphylococcus aureus; conditions: Table 10; duplicate
Procedure: (§3) MIC tests were performed with some of the variants of Example 2 on a range of other organisms. The results are shown in Tables 9 and 10 (figures in μg/ml): […]

S. aureus LT 1012-13 = test: MIC test, further organisms; assay type: cell-based, Staphylococcus aureus; conditions: Table 10; duplicate
Procedure: as §3

S. aureus Mu50 = test: MIC test, further organisms; assay type: cell-based, Staphylococcus aureus; conditions: Table 10; duplicate
Procedure: as §3

E. faecium BM4147 = test: MIC test, further organisms; assay type: cell-based, Enterococcus faecium; conditions: Table 10; duplicate
Procedure: as §3

M. luteus 4698 = assay type: cell-based, Micrococcus luteus
Procedure: as §1, §2

S. pneumoniae R6 = assay type: cell-based, Streptococcus pneumoniae; conditions: Table 8B; BHI broth + 50 μg/ml calcium; duplicate
Procedure: as §1, §2

M. luteus = conditions: data of Szekat et al., cited from earlier work; for fold greater MIC measured against M. luteus: compared with mersacidin
S. pyogenes 13608 = assay type: cell-based, Streptococcus pyogenes
Procedure: as §3

S. pyogenes 16205 = assay type: cell-based, Streptococcus pyogenes
Procedure: as §3

S. aureus 1012-13 MRSA = assay type: cell-based, Staphylococcus aureus
Procedure: as §3

S. aureus COL MRSA = assay type: cell-based, Staphylococcus aureus
Procedure: as §3

S. aureus CS = assay type: cell-based, Staphylococcus aureus
Procedure: as §3

S. aureus SG511 = assay type: cell-based, Staphylococcus aureus
Procedure: as §3

E. faecium 4147 VRE = assay type: cell-based, Enterococcus faecium
Procedure: as §3

E. faecium 4147-1 = assay type: cell-based, Enterococcus faecium
Procedure: as §3

[1] = Table 8A, MHB + 50 μg/ml calcium
[2] = Table 8A, MHB + 50 μg/ml calcium, duplicate
[3] = Table 8B, MHB + 50 μg/ml calcium, duplicate

C=C1NC(=O)C2NC(=O)[C@H](CC(C)C)NC(=O)C(NC(=O)[C@@H]3CSC(C)C(NC(=O)[C@H](Cc4ccccc4)NC(=O)C4NC(=O)[C@@H](N)CSC4C)C(=O)N[C@@H](CC(C)C)C(=O)N4CCC[C@H]4C(=O)NCC(=O)NCC(=O)NCC(=O)N[C@@H](C)C(=O)N[C@@H](C(C)C)C(=O)N3)C(C)SC[C@H](NC(=O)[C@H](CCC(=O)O)NC1=O)C(=O)N[C@@H]([C@@H](C)CC)C(=O)NC=CSC2C (some centres unmarked) [G10A]
MIC E. faecium 19579 (E. faecium 19579; [1]): >64, >64 μg/ml | MIC E. faecium 7131121 (E. faecium 7131121; [1]): >64, >64 μg/ml | MIC E. faecalis 29212 (E. faecalis 29212; [1]): >64, >64 μg/ml | MIC S. aureus R33 (S. aureus R33): >64, >64 μg/ml | MIC S. aureus SH1000 (S. aureus SH1000; [2]): >64, >64 μg/ml

P6N: mersacidin variant (CTFTLNGGGGVCTLT[Dha]ECIC; thioether (positions not given here); not fully specified; UniProt P43683 49-68, looked up, variant P6N)
MIC S. aureus COL (S. aureus COL): >32, >32 μg/ml | MIC S. aureus LT 1012-13 (S. aureus LT 1012-13): >32, >32 μg/ml | MIC S. aureus Mu50 (S. aureus Mu50): >32, >32 μg/ml | MIC E. faecium BM4147 (E. faecium BM4147): >32, >32 μg/ml

G8Q: mersacidin variant (CTFTLPGQGGVCTLT[Dha]ECIC; thioether (positions not given here); not fully specified; UniProt P43683 49-68, looked up, variant G8Q)
MIC E. faecium 19579 (E. faecium 19579; [1]): >64, >64 μg/ml | MIC E. faecium 7131121 (E. faecium 7131121; [1]): >64, >64 μg/ml | MIC E. faecalis 29212 (E. faecalis 29212; [1]): >64, >64 μg/ml | MIC S. aureus SH1000 (S. aureus SH1000; [2]): >64, >64 μg/ml

G7N: mersacidin variant (CTFTLPNGGGVCTLT[Dha]ECIC; thioether (positions not given here); not fully specified; UniProt P43683 49-68, looked up, variant G7N)
MIC E. faecalis 29212 (E. faecalis 29212; [1]): >64, >64 μg/ml | MIC M. luteus 4698 (M. luteus 4698; [3]): <4, <4 μg/ml

G7A: mersacidin variant (CTFTLPAGGGVCTLT[Dha]ECIC; thioether (positions not given here); not fully specified; UniProt P43683 49-68, looked up, variant G7A)
MIC E. faecium 7131121 (E. faecium 7131121; [1]): >64, >64 μg/ml | MIC E. faecalis 29212 (E. faecalis 29212; [1]): >64, >64 μg/ml | MIC S. aureus SH1000 (S. aureus SH1000; [2]): >64, >64 μg/ml | MIC S. pneumoniae R6 (S. pneumoniae R6): >64, >64 μg/ml

G10Y: mersacidin variant (CTFTLPGGGYVCTLT[Dha]ECIC; thioether (positions not given here); not fully specified; UniProt P43683 49-68, looked up, variant G10Y)
MIC S. aureus SH1000 (S. aureus SH1000; [2]): >64, >64 μg/ml | MIC M. luteus 4698 (M. luteus 4698; [3]): <4, <4 μg/ml | MIC S. pneumoniae R6 (S. pneumoniae R6): <4, <4 μg/ml

C=C1NC(=O)C2NC(=O)[C@H](CC(C)C)NC(=O)C(NC(=O)[C@@H]3CSC(C)C(NC(=O)[C@H](Cc4ccccc4)NC(=O)C4NC(=O)[C@@H](N)CSC4C)C(=O)N[C@@H](CC(C)C)C(=O)N4CCC[C@H]4C(=O)NCC(=O)NCC(=O)N[C@@H](CC(N)=O)C(=O)NCC(=O)N[C@@H](C(C)C)C(=O)N3)C(C)SC[C@H](NC(=O)[C@H](CCC(=O)O)NC1=O)C(=O)N[C@@H]([C@@H](C)CC)C(=O)NC=CSC2C (some centres unmarked) [G9N]
MIC E. faecium 19579 (E. faecium 19579; [1]): >64, >64 μg/ml | MIC E. faecium 7131121 (E. faecium 7131121; [1]): >64, >64 μg/ml | MIC E. faecalis 29212 (E. faecalis 29212; [1]): >64, >64 μg/ml | MIC S. aureus SH1000 (S. aureus SH1000; [2]): >64, >64 μg/ml | MIC S. pneumoniae R6 (S. pneumoniae R6): >64, >64 μg/ml

mersacidin L14I Dha16Dhb (CTFTLPGGGGVCTIT[Dhb]ECIC; thioether (positions not given here); not fully specified; UniProt P43683 49-68, looked up, variant L14I S16T) [mersacidin double variant]
MIC E. faecium 7131121 (E. faecium 7131121; Table 18, double variants): >64, >64 μg/ml | MIC E. faecalis 29212 (E. faecalis 29212; Table 18, double variants): >64, >64 μg/ml

S16I: mersacidin variant produced by Szekat et al. (CTFTLPGGGGVCTLTIECIC; thioether (positions not given here); not fully specified; UniProt P43683 49-68, looked up, variant S16I)
antibacterial activity (in words) (M. luteus): essentially inactive | fold greater MIC measured against M. luteus (M. luteus): about 1,000 fold

CC[C@H](C)[C@@H]1NC(=O)[C@@H]2CSC(C)C(NC(=O)[C@@H]3CSC(C)C(NC(=O)[C@H](Cc4ccccc4)NC(=O)C4NC(=O)[C@@H](N)CSC4C)C(=O)N[C@@H](CC(C)C)C(=O)N4CCC[C@H]4C(=O)NCC(=O)NCC(=O)NCC(=O)NCC(=O)N[C@@H](C(C)C)C(=O)N3)C(=O)N[C@@H](CC(C)C)C(=O)NC(C(=O)N[C@@H](Cc3c[nH]cn3)C(=O)N[C@@H](CCC(=O)O)C(=O)N2)C(C)SC=CNC1=O (some centres unmarked) [Dha16H]
MIC M. luteus 4698 (M. luteus 4698; 4698): 4 µg/mL (≈ 2.11 µM) | MIC S. pyogenes 13608 (S. pyogenes 13608): 4 µg/mL (≈ 2.11 µM) | MIC S. pyogenes 16205 (S. pyogenes 16205): 4 µg/mL (≈ 2.11 µM) | MIC S. aureus 1012-13 MRSA (S. aureus 1012-13 MRSA): 64 µg/mL (≈ 33.8 µM) | MIC S. aureus COL MRSA (S. aureus COL MRSA): 64 µg/mL (≈ 33.8 µM) | MIC S. aureus CS (S. aureus CS): 64 µg/mL (≈ 33.8 µM) | MIC S. aureus SG511 (S. aureus SG511): 8 µg/mL (≈ 4.22 µM) | MIC E. faecium 4147 VRE (E. faecium 4147 VRE; 4147 VRE): 128 µg/mL (≈ 67.6 µM) | MIC E. faecium 4147-1 (E. faecium 4147-1; Table 9, 16 h): 128-16 h, μg/ml | MIC E. faecium 4147-1 (E. faecium 4147-1; Table 9, 23 h): 256-23 h μg/ml

mersacidin E17A (CTFTLPGGGGVCTLT[Dha]ACIC; thioether (positions not given here); not fully specified; UniProt P43683 49-68, looked up, variant E17A) [mersacidin variant produced by Szekat et al]
antibacterial activity (in words) (M. luteus): essentially inactive; also recorded: no antibacterial activity | fold greater MIC measured against M. luteus (M. luteus): about 1,000 fold

C=C1NC(=O)C2NC(=O)[C@H](CC(C)C)NC(=O)C(NC(=O)[C@@H]3CSC(C)C(NC(=O)[C@H](Cc4ccccc4)NC(=O)C4NC(=O)[C@@H](N)CSC4C)C(=O)N[C@@H](CC(C)C)C(=O)N[C@@H](C)C(=O)NCC(=O)NCC(=O)NCC(=O)NCC(=O)N[C@@H](C(C)C)C(=O)N3)C(C)SC[C@H](NC(=O)[C@H](CCC(=O)O)NC1=O)C(=O)N[C@@H]([C@@H](C)CC)C(=O)NC=CSC2C (some centres unmarked) [P6A]
MIC M. luteus 4698 (M. luteus 4698; 4698): 4 µg/mL (≈ 2.22 µM) | MIC S. pyogenes 13608 (S. pyogenes 13608): 4 µg/mL (≈ 2.22 µM) | MIC S. pyogenes 16205 (S. pyogenes 16205): 8 µg/mL (≈ 4.44 µM) | MIC S. aureus 1012-13 MRSA (S. aureus 1012-13 MRSA): 32 µg/mL (≈ 17.8 µM) | MIC S. aureus COL MRSA (S. aureus COL MRSA): 64 µg/mL (≈ 35.6 µM) | MIC S. aureus CS (S. aureus CS): 32 µg/mL (≈ 17.8 µM) | MIC S. aureus SG511 (S. aureus SG511): 8 µg/mL (≈ 4.44 µM) | MIC E. faecium 4147 VRE (E. faecium 4147 VRE; Table 9, 16 h): 128-16 h, μg/ml | MIC E. faecium 4147 VRE (E. faecium 4147 VRE; Table 9, 24 h): 256-24 h μg/ml | MIC E. faecium 4147-1 (E. faecium 4147-1; 4147-1): 256 µg/mL (≈ 142 µM)

C=C1NC(=O)C2NC(=O)[C@H](CC(C)C)NC(=O)C(NC(=O)[C@@H]3CSC(C)C(NC(=O)[C@H](Cc4ccccc4)NC(=O)C4NC(=O)[C@@H](N)CSC4C)C(=O)N[C@@H](CC(C)C)C(=O)N4CCC[C@H]4C(=O)NCC(=O)N[C@@H](Cc4c[nH]cn4)C(=O)NCC(=O)NCC(=O)N[C@@H](C(C)C)C(=O)N3)C(C)SC[C@H](NC(=O)[C@H](CCC(=O)O)NC1=O)C(=O)N[C@@H]([C@@H](C)CC)C(=O)NC=CSC2C (some centres unmarked) [G8H]
MIC E. faecium 19579 (E. faecium 19579; Table 11): >64, >64 μg/ml | MIC E. faecium 7131121 (E. faecium 7131121; Table 11): >64, >64 μg/ml | MIC E. faecalis 29212 (E. faecalis 29212; Table 11): >64, >64 μg/ml | MIC S. aureus SH1000 (S. aureus SH1000; SH1000): 64, >64 μg/ml

F3L: mersacidin variant produced by Szekat et al. (CTLTLPGGGGVCTLT[Dha]ECIC; thioether (positions not given here); not fully specified; UniProt P43683 49-68, looked up, variant F3L)
MIC against M. luteus (M. luteus): 12.5 µg/mL | antibacterial activity (in words) (M. luteus): weakly active
